How the values were obtained:
[1] = molecular target: T1, Muscarinic acetylcholine receptor M1 (Homo sapiens, UniProt P11229); type: functional
T1 sequence (P11229 whole entry): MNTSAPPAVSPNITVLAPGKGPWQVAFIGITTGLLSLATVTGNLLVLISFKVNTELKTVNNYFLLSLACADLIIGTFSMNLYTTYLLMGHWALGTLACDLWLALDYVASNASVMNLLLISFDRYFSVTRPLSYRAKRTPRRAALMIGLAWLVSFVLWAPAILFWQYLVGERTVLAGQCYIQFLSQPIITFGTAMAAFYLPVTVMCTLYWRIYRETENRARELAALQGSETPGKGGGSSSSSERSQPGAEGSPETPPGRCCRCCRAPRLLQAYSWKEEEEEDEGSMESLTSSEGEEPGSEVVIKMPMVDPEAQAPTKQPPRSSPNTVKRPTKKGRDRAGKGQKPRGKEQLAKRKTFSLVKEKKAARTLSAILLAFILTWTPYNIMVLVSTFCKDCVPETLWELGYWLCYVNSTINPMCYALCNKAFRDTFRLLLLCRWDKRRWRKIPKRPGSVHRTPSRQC

[2] = molecular target: T2, 5-hydroxytryptamine receptor 1A (Homo sapiens, UniProt P08908); type: functional, cell-based
T2 sequence (P08908 whole entry): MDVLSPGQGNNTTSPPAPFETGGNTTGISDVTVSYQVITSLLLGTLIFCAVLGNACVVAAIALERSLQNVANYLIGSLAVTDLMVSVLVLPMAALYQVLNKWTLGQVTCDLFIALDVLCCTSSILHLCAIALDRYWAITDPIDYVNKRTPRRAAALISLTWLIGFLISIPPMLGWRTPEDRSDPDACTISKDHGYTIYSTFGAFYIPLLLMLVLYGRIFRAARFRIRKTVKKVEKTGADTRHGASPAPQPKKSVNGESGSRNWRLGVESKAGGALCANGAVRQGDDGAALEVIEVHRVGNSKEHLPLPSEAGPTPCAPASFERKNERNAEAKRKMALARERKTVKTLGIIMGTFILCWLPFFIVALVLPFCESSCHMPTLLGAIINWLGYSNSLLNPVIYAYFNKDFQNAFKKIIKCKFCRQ

[3] = molecular target: Histamine H3 receptor (Homo sapiens, UniProt Q9Y5N1)
[4] = molecular target: D(1A) dopamine receptor (Homo sapiens, UniProt P21728); type: functional, cell-based
[5] = molecular target: T3, Progesterone receptor (Homo sapiens, UniProt P06401); type: functional
T3 sequence (P06401 whole entry): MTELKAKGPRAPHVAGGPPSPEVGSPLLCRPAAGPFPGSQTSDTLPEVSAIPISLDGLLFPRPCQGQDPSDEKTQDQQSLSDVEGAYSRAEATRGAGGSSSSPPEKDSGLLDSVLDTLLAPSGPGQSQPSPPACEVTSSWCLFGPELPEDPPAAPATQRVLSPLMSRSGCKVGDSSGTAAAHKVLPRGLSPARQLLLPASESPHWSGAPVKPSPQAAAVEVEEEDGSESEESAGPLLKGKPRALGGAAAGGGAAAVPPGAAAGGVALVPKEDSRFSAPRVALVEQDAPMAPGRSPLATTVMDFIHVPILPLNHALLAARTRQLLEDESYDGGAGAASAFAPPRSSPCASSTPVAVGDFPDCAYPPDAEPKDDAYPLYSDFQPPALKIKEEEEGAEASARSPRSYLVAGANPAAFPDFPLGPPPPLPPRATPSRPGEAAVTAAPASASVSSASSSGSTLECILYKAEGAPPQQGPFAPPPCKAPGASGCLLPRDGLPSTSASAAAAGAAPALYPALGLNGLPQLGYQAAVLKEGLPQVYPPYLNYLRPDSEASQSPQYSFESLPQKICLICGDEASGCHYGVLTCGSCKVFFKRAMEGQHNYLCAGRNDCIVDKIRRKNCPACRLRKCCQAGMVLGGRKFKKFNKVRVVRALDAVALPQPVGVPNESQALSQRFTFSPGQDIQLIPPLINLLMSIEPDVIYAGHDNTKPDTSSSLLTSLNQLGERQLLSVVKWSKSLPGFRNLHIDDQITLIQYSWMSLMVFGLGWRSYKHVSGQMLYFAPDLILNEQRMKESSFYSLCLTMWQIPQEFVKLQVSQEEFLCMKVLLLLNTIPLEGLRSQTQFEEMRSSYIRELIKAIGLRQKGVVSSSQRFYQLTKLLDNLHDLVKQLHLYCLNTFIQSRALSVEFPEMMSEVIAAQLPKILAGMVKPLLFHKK

[6] = molecular target: Voltage-dependent L-type calcium channel subunit alpha-1C (Rattus norvegicus, UniProt P22002); type: functional
[7] = molecular target: T4, Alpha-2C adrenergic receptor (Homo sapiens, UniProt P18825); type: functional
T4 sequence (P18825 whole entry): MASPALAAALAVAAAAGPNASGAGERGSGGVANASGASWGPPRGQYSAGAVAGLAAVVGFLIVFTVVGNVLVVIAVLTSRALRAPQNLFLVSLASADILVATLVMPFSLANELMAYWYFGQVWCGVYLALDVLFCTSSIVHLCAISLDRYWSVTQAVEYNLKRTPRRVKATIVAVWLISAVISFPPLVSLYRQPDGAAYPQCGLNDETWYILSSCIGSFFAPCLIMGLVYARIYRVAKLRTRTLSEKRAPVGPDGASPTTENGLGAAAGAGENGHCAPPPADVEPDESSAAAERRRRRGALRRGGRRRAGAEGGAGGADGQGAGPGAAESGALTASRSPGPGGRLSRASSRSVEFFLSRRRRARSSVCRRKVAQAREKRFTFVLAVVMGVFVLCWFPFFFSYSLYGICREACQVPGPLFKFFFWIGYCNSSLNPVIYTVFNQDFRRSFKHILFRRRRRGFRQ

[8] = molecular target: Vasopressin V2 receptor (Homo sapiens, UniProt P30518)
[9] = molecular target: T5, Muscarinic acetylcholine receptor M2 (Homo sapiens, UniProt P08172); type: functional, cell-based
T5 sequence (P08172 whole entry): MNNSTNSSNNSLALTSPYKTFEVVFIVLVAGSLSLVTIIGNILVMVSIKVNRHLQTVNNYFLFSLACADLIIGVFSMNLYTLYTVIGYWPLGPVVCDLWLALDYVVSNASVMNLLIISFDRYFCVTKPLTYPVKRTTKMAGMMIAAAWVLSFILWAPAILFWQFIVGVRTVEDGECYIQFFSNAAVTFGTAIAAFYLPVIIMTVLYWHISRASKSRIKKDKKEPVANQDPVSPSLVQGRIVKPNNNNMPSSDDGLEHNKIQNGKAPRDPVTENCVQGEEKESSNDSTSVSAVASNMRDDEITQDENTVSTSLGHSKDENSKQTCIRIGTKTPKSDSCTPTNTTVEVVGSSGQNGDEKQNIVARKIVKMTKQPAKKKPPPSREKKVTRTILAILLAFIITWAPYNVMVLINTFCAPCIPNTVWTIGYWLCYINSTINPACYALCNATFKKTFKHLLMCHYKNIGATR
Also: assay procedure not described here.

Voltage-dependent L-type calcium channel subunit alpha-1C, sequence (P22002 whole entry): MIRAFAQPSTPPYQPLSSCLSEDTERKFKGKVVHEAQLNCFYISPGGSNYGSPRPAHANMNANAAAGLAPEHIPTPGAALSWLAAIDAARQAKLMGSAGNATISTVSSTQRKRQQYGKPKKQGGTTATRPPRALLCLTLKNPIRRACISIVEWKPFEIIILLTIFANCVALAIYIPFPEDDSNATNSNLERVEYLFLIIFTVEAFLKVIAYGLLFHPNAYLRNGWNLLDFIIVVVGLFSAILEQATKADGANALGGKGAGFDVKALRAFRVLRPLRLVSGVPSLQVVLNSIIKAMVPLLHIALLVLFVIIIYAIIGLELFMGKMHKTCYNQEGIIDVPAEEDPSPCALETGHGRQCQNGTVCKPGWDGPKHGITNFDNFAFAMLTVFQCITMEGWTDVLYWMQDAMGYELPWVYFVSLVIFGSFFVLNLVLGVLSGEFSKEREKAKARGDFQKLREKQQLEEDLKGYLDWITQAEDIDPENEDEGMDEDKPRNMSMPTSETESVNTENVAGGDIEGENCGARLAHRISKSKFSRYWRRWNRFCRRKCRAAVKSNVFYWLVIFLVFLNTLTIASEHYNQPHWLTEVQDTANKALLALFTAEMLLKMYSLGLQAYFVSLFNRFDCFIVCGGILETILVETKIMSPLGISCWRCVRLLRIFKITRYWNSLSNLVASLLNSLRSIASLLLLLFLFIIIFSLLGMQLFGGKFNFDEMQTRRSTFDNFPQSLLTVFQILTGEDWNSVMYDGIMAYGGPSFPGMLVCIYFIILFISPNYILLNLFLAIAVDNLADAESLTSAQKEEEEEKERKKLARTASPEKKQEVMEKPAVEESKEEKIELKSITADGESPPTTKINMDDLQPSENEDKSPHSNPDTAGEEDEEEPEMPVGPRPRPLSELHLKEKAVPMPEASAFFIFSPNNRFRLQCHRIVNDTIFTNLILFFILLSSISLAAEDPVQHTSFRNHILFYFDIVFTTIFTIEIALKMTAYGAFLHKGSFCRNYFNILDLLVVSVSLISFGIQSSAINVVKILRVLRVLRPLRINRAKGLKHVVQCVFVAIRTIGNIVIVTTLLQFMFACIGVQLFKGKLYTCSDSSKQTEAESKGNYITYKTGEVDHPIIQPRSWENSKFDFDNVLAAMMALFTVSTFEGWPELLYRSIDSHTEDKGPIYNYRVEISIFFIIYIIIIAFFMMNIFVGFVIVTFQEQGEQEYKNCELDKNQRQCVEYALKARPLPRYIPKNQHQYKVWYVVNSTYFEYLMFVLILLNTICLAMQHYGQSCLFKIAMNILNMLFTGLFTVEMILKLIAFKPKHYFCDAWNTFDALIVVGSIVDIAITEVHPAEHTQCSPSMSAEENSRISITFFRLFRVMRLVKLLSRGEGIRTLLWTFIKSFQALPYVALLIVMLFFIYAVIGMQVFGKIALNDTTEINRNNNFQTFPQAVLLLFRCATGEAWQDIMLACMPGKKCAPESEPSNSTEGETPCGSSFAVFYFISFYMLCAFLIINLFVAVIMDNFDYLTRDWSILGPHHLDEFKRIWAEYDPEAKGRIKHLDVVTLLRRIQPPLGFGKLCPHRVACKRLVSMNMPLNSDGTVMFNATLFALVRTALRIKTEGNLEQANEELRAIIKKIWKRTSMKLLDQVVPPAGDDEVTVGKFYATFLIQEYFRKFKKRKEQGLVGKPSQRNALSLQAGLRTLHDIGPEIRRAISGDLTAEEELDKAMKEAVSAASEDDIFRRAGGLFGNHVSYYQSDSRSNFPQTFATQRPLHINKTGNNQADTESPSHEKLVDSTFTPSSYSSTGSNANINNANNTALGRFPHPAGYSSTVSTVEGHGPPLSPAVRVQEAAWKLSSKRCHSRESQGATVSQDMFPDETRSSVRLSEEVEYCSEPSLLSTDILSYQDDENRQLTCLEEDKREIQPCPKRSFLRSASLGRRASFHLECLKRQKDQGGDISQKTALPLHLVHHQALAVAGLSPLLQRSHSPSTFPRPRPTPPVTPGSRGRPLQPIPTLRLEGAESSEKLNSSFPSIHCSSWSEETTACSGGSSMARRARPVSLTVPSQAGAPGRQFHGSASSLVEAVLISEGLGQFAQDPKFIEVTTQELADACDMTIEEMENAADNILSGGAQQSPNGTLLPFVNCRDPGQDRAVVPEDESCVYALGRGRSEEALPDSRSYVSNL
D(1A) dopamine receptor, sequence (P21728 whole entry): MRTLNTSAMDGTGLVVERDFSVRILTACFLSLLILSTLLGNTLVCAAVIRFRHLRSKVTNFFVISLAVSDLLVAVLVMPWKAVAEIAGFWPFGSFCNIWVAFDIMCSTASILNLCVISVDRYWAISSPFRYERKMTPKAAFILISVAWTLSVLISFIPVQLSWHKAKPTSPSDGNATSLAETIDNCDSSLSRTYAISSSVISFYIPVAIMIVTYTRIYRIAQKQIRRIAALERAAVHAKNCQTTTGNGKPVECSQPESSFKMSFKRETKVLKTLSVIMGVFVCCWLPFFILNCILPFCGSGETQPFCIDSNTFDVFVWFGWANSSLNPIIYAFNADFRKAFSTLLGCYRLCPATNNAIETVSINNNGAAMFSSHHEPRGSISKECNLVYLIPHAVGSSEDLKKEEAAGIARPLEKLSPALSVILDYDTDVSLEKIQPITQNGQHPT
Histamine H3 receptor, sequence (Q9Y5N1 whole entry): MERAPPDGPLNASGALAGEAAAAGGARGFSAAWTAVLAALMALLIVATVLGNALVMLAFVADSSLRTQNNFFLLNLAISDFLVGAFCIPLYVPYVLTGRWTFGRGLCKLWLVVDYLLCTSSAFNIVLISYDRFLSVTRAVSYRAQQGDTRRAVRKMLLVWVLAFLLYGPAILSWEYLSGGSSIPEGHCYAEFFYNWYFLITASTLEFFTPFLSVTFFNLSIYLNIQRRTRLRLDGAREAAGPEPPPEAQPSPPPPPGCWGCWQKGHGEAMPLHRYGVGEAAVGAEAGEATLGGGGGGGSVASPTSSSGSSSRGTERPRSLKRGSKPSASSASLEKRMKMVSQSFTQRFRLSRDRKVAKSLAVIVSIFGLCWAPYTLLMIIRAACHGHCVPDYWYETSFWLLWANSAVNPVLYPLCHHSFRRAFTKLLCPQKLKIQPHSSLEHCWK

Molecule	AC50 [1] [µM]	AC50 [2] [µM]	AC50 [3] [µM]	AC50 [4] [µM]	AC50 [5] [µM]	AC50 [6] [µM]	AC50 [7] [µM]	AC50 [8] [µM]	AC50 [9] [µM]
O=C(C[S+]([O-])C(c1ccccc1)c1ccccc1)NO (configuration not stated)	> 30	> 30	> 30	> 30	> 30	> 30	> 30	> 30	> 30
CCC(C(=O)O)c1ccc(CC(C)C)cc1 (configuration not stated) [BUTIBUFEN]	> 30	> 30	> 30	> 30	> 30	> 30	> 30	> 30	> 30
C#CC1(OC(N)=O)CCCCC1 [ETHINAMATE]	> 10	> 10	> 10	> 10	> 10	> 10	> 10	> 10	> 10
CCCCCN(C)CCC(O)(P(=O)(O)O)P(=O)(O)O [IBANDRONIC ACID]	> 30	> 10	> 30	> 30	> 30	> 30	> 30	> 30	> 30
C1=Cc2cccc(OCC3CNCCO3)c2C1 (configuration not stated) [INDELOXAZINE]	> 30	> 30	> 30	> 30	> 30	> 30	> 30	> 30	> 30
CC(C)[N+](C)(CCC(C(N)=O)(c1ccccc1)c1ccccc1)C(C)C [ISOPROPAMIDE]	0.013	> 10	–	> 10	> 10	> 10	> 10	> 10	0.01
COC(=O)C1=C(C)NC(C)=C(C(=O)OC(C)C)C1c1cccc2nonc12 (configuration not stated) [ISRADIPINE]	> 30	> 10	–	> 30	> 30	0.0045	> 30	> 30	> 10
CN1CC[C@]23CCCC[C@H]2[C@H]1Cc1ccc(O)cc13 [LEVORPHANOL]	> 30	> 10	–	> 30	> 10	> 10	> 30	> 10	> 10
C#C[C@]1(O)CC[C@H]2[C@@H]3CCC4=CCCC[C@@H]4[C@H]3CC[C@@]21C [LYNESTRENOL]	> 30	> 30	> 30	> 30	5.2	> 30	> 30	> 30	> 30
CC1=CC(=O)c2ccccc2C1=O [MENADIONE]	> 30	> 10	–	> 10	> 30	> 10	> 30	> 10	> 10
CN1CCCN=C1COC(=O)C(O)(c1ccccc1)C1CCCCC1 (configuration not stated) [OXYPHENCYCLIMINE]	0.019	> 10	–	> 10	> 10	> 10	> 10	> 10	0.07
CN1CCC2=C(C1)C(c1ccccc1)c1ccccc12 (configuration not stated) [PHENINDAMINE]	> 10	> 10	–	> 10	> 30	> 10	12	> 10	> 10
C#CCN[C@@H]1CCc2ccccc21 [RASAGILINE]	> 30	> 30	> 30	> 30	> 30	> 30	21	> 30	> 30
CC(=O)NS(=O)(=O)c1ccc(N)cc1 [SULFACETAMIDE]	> 10	> 10	> 10	> 10	> 10	> 10	> 10	> 10	> 10
Cc1c(Cl)cccc1Nc1ccccc1C(=O)O [TOLFENAMIC ACID]	> 30	22	> 30	> 30	> 30	> 30	> 30	> 30	> 30
CN1CCN(C(=O)OC2c3nccnc3C(=O)N2c2ccc(Cl)cn2)CC1 (configuration not stated) [ZOPICLONE]	> 30	> 10	> 30	> 10	> 30	> 10	> 30	> 30	> 10
TOCOFERSOLAN	> 30	> 30	> 30	> 30	> 30	> 30	> 30	> 30	> 30

— ChEMBL document CHEMBL5291721, “A preclinical secondary pharmacology resource illuminates target-adverse drug reaction associations of marketed drugs” (Nat Commun, 2023)
